Measured values from US20260232714A1, “COMPOSITION CONTAINING NICOTINAMIDE MONONUCLEOTIDE” (MEIJI HOLDINGS CO., LTD., priority 2023, published 2026).
Entries after “also recorded” stand apart in the source; their conditions may differ.

Test: Test 1: blood NMN concentration after oral or sublingual administration of NMN (plasma, LC-MS/MS)
Format: in vivo, human
Experimental: Tablets were used for oral administration. The content of NMN was 500 mg.
Powder was used for sublingual administration. The content of NMN was 250 mg.
One adult with no abnormal health conditions participated in the test. The test was conducted over two separate days.
Then, 250 mg of NMN (powder) was placed under the tongue, so that the powder was dissolved with saliva, and the test subject was maintained in that state. After 1 minute, the test subject spit out all NMN from the mouth, and blood was collected from the fingertip 5, 10, 15, and 30 minutes after the NMN was placed under the tongue.
NMN concentration was determined by LC-MS/MS. Details of the measurements are described below.
• Liquid A: 5 mM Ammonium formate aqueous solution • Liquid B: Acetonitrile

[1] = sublingual administration, in some test subjects

NC(=O)c1ccc[n+]([C@@H]2O[C@H](COP(=O)([O-])O)[C@@H](O)[C@H]2O)c1 [NMN, nicotinamide mononucleotide]
blood NMN concentration compared with that observed before NMN ingestion (0 minute) (oral administration, one tablet 500 mg NMN with water, one adult, 5-60 minutes, plasma): virtually unchanged; also recorded: does not increase; also recorded: almost unchanged
maximum blood concentration [1]: ≥ 5 µg/mL
time to reach the maximum blood concentration after administration [1]: about 5 minutes
